In general, LD50 refers to the dose expected to kill half of the subjects tested. The low end stands for a more toxic substance, the high end for a less toxic substance.

The test system of one series is cats. Description: coughing experiment according to Domenjoz on cats (antitussive effect). The series is classed as in vivo. From the text: The new compounds thereby considerably exceed the known antitussive action of 5,6,6a,7-tetrahydro-1,2,9,10-tetramethoxy-5-methyl-4H-dibenzo(de,g)quinoline (glaucine) with regard to the strength and length of activity.
(§1) The following Table summarises some of the animal experimental results obtained: […]

Another series in a line: toxicity in mice (LD50). The settings on record: mouse, in vivo.
Description: as §1

For the molecule `COc1cc2c(cc1OC)-c1c(OC)c(OC)cc3c1C(C2)N(C)CC3` (stereo not drawn) [glaucine], the “antitussive effect: duration of cough inhibition” value was 10 min in the series with cats (2.0 mg./kg., i.v.) and 40 min in the series with cats (4.0 mg./kg., id.). For the same molecule, the “antitussive effect: cough inhibition” value in the series with cats (10.0 mg./kg., sc., result in words) is reported as “no cough”. In addition, the 50% lethal dose (LD50) in the series “toxicity in mice (LD50)” (iv) worked out at 58.3 mg/kg; in the series “toxicity in mice (LD50)” (po, ig.) it was 531 mg/kg; in the series “toxicity in mice (LD50)” (sc.), 20 mg/kg.
In the case of `C=CCN1CCc2cc(OC)c(OC)c3c2C1Cc1cc(OC)c(OC)cc1-3` (single isomer, unassigned; (+)) [Example 1, (+)-6-Allyl-5,6,6a,7-tetrahydro-1,2,9,10-tetramethoxy-4H-dibenzo(de,g)quinoline], the “antitussive effect: duration of cough inhibition” value in the series with cats (1.0 mg./kg., i.v.) worked out at 20 min; with cats (6.25 mg./kg., id.), 90 min; in the series on cats (6.25 mg./kg., sc.), 40 min. In addition, the 50% lethal dose (LD50) in the series “toxicity in mice (LD50)” (iv) was 150 mg/kg; in “toxicity in mice (LD50)” (po, ig.), roughly 1200 mg/kg; in “toxicity in mice (LD50)” (sc.), 150 mg/kg.

The values above are taken from patent US4461895A, “Dibenzo(de,g)quinolines” (Warner-Lambert Company, priority 1981, dated 1984).
